From patent US20240174714A1, “TREATMENT OF SKIN DISORDERS” (priority 2021, published 2024) come the findings set out here.

The subject of series [1] is axenic Leishmania donovani MHOM-ET-67/L82 amastigotes. In words: In vitro antiprotozoal assay, axenic amastigotes. The series is classed as cell-based.
Method: (§1) The testing of the inventive compounds against Leishmania donovani (strain MHOM/ET/67/L82) was performed in 96 well plates at concentrations in serial dilutions. Tests were done in triplicate.
For series [2], the system named is intracellular Leishmania donovani MHOM-ET-67/L82 amastigotes. In words: In vitro antiprotozoal assay, intracellular amastigotes. The class given is cell-based. The note with it: intracellular amastigotes; read-out: L.don.InMac IC50.
Method: as §1
The nature of series [3]: Cytotoxicity assay (Alamar Blue) on L6-cells. The series is classed as cell-based, rat. The method, then:
Tests were done in triplicate.
The plates were incubated for additional 2 h.
For orientation: The colour change of resazurin is a common sign of viable cells or microbes.

Series [4] relates to Staphylococcus aureus ATCC BAA-1556, USA300 MRSA. In words: microbe, parasite or virus in culture. The class given is cell-based. The note with it: ATCC BAA-1556. The method, then:
Pre-formulated compound solution was diluted in 100% DMSO to prepare a 1.6 mg/mL working stock solution. […] The concentration range was 0.032 to 32 μg/mL.

[5] abbreviates: axenic amastigotes, read-out: L.don.ax. IC50.

pIC50: −log10 of the molar value. In brackets after ≈: the same amount, converted by molar mass. Where two headings read alike, the source gives them in different places. Square brackets hold non-standard residues; d marks the D form. Peptide text beside a SMILES is read from it. * marks the point of attachment. Benzoyl(4-CF3) = O=C(c1ccc(C(F)(F)F)cc1)*; NH((S)CH(Me)CH2NMe2) = C[C@@H](CN(C)C)N*; NH(1-CH2NMe2-cBu) = CN(C)CC1(N*)CCC1; dGly(nOct) = CCCCCCCC[C@@H](N)C(=O)O; Gly(octyl) = CCCCCCCC[C@H](N)C(=O)O; Oxazole4CO(2-Me) = Cc1nc(C(=O)*)co1; d(hCha) = N[C@H](CCC1CCCCC1)C(=O)O; Benzoyl(4-F) = O=C(c1ccc(F)cc1)*; hCha = N[C@@H](CCC1CCCCC1)C(=O)O; Aoc(2) = CCCCCC[C@H](N)C(=O)O; X3 = C[C@@H](CN1CCOCC1)N*; X9 = O=C(c1ccc2ocnc2c1)*; Aib = CC(C)(N)C(=O)O; βAla = NCCC(=O)O; tBu = CC(C)(C)* Some results are limits rather than exact numbers.

Broadly, the pIC50 is −log10 of the IC50, conventionally taken in molar units. By IC50 is commonly meant the concentration at which inhibition is half-maximal. In the case of `CCCCCCCC[C@H](NC(=O)[C@@H]1CCCN1C(=O)c1ccc(C(F)(F)F)cc1)C(=O)N[C@@H](CC(C)C)C(=O)NC(C)(C)C(=O)N[C@@H](CC(C)C)C(=O)N[C@@H](CC(C)C)C(=O)NC(C)(C)C(=O)NC(C)(C)C(=O)NCCC(=O)N[C@@H](C)CN(C)C` [Compound 5936, (2S)-N-[(1S)-1-[(1-{[(1S)-1-{[(1S)-1-{[1-({1-[(2-{[(2S)-1-(dimethylamino)propan-2-yl]carbamoyl}ethyl)carbamoyl]-1-methylethyl}carbamoyl)-1-methylethyl]carbamoyl}-3-methylbutyl]carbamoyl}-3-methylbutyl]carbamoyl}-1-methylethyl)carbamoyl]-3-methylbutyl]-2-{[(2S)-1-[4-(trifluoromethyl)benzoyl]pyrrolidin-2-yl]formamido}decanamide] ({Benzoyl(4-CF3)}-P[Gly(octyl)]L[Aib]LL[Aib][Aib][βAla]-{NH((S)CH(Me)CH2NMe2)}), the results for the pIC50 in series [1] (setting [5]) and in series [2] were 8.48 and more than 7.48, respectively. Further, the IC50 at 68 h in series [3] (rat) was 411 nM.
For `CCCCCCCC[C@H](NC(=O)[C@@H]1CCCN1C(=O)c1ccc2ocnc2c1)C(=O)N[C@@H](CC(C)C)C(=O)NC(C)(C)C(=O)N[C@@H](CC(C)C)C(=O)N[C@@H](CC(C)C)C(=O)NC(C)(C)C(=O)NC(C)(C)C(=O)NCCC(=O)N[C@@H](C)CN(C)C` [Compound 5937, (2S)-2-{[(2S)-1-(1,3-benzoxazole-5-carbonyl)pyrrolidin-2-yl]formamido}-N-[(1S)-1-[(1-{[(1S)-1-{[(1S)-1-{[1-({1-[(2-{[(2S)-1-(dimethylamino)propan-2-yl]carbamoyl}ethyl)carbamoyl]-1-methylethyl}carbamoyl)-1-methylethyl]carbamoyl}-3-methylbutyl]carbamoyl}-3-methylbutyl]carbamoyl}-1-methylethyl)carbamoyl]-3-methylbutyl]decanamide] (X9-P[Gly(octyl)]L[Aib]LL[Aib][Aib][βAla]-{NH((S)CH(Me)CH2NMe2)}), in that order: 7.67, 7.23 and 1160 nM.
For `Cc1nc(C(=O)N2CCC[C@H]2C(=O)N[C@@H](CCC2CCCCC2)C(=O)N[C@@H](CC(C)C)C(=O)NC(C)(C)C(=O)N[C@@H](CC(C)C)C(=O)N[C@@H](CC(C)C)C(=O)NC(C)(C)C(=O)NC(C)(C)C(=O)NCCC(=O)N[C@@H](C)CN2CCOCC2)co1` [Compound 6026, (2S)-2-[(2S)-2-{2-[(2S)-2-[(2S)-4-cyclohexyl-2-{[(2S)-1-(2-methyl-1,3-oxazole-4-carbonyl)pyrrolidin-2-yl]formamido}butanamido]-4-methylpentanamido]-2-methylpropanamido}-4-methylpentanamido]-4-methyl-N-[1-methyl-1-({1-methyl-1-[(2-{[(2S)-1-(morpholin-4-yl)propan-2-yl]carbamoyl}ethyl)carbamoyl]ethyl}carbamoyl)ethyl]pentanamide] ({Oxazole4CO(2-Me)}-P[hCha]L[Aib]LL[Aib][Aib][βAla]-X3), in that order: 8.38, 7.29 and 1580 nM.
On to `CC(C)C[C@H](NC(=O)[C@H](CCC1CCCCC1)NC(=O)[C@@H]1CCCN1C(=O)c1ccc(F)cc1)C(=O)NC(C)(C)C(=O)N[C@@H](CC(C)C)C(=O)N[C@@H](CC(C)C)C(=O)NC(C)(C)C(=O)NC(C)(C)C(=O)NCCC(=O)N[C@@H](C)CN1CCOCC1` [Compound 6028, (2S)-2-[(2S)-2-{2-[(2S)-2-[(2S)-4-cyclohexyl-2-{[(2S)-1-(4-fluorobenzoyl)pyrrolidin-2-yl]formamido}butanamido]-4-methylpentanamido]-2-methylpropanamido}-4-methylpentanamido]-4-methyl-N-[1-methyl-1-({1-methyl-1-[(2-{[(2S)-1-(morpholin-4-yl)propan-2-yl]carbamoyl}ethyl)carbamoyl]ethyl}carbamoyl)ethyl]pentanamide] ({Benzoyl(4-F)}-P[hCha]L[Aib]LL[Aib][Aib][βAla]-X3), for which the pIC50 in series [1] (setting [5]) was 8.48; in series [2], 6.38. In series [3] (rat), the IC50 at 68 h came out at 1590 nM.
Turning to `Cc1nc(C(=O)N2CCC[C@H]2C(=O)N[C@@H](COC(C)(C)C)C(=O)N[C@@H](CC(C)C)C(=O)NC(C)(C)C(=O)N[C@@H](CC(C)C)C(=O)N[C@@H](CC(C)C)C(=O)NC(C)(C)C(=O)NC(C)(C)C(=O)NCCC(=O)NC2(CN(C)C)CCC2)co1` [Compound 6780, (2S)-2-[(2S)-2-{2-[(2S)-2-[(2S)-3-(tert-butoxy)-2-{[(2S)-1-(2-methyl-1,3-oxazole-4-carbonyl)pyrrolidin-2-yl]formamido}propanamido]-4-methylpentanamido]-2-methylpropanamido}-4-methylpentanamido]-N-{1-[(1-{[2-({1-[(dimethylamino)methyl]cyclobutyl}carbamoyl)ethyl]carbamoyl}-1-methylethyl)carbamoyl]-1-methylethyl}-4-methylpentanamide] ({Oxazole4CO(2-Me)}-PS(tBu)L[Aib]LL[Aib][Aib][βAla]-{NH(1-CH2NMe2-cBu)}), the pIC50 is 6.78 in series [1] (setting [5]) and 6.00 in series [2]. In series [3] (rat), this compound had an IC50 at 68 h of 8750 nM.
For the compound `CCCCCCCC[C@@H](NC(=O)[C@@H]1CCCN1C(=O)c1coc(C)n1)C(=O)N[C@@H](CC(C)C)C(=O)NC(C)(C)C(=O)N[C@@H](CC(C)C)C(=O)N[C@@H](CC(C)C)C(=O)NC(C)(C)C(=O)NC(C)(C)C(=O)NCCC(=O)NC1(CN(C)C)CCC1` [Compound 6789, (2R)-N-[(1S)-1-[(1-{[(1S)-1-{[(1S)-1-({1-[(1-{[2-({1-[(dimethylamino)methyl]cyclobutyl}carbamoyl)ethyl]carbamoyl}-1-methylethyl)carbamoyl]-1-methylethyl}carbamoyl)-3-methylbutyl]carbamoyl}-3-methylbutyl]carbamoyl}-1-methylethyl)carbamoyl]-3-methylbutyl]-2-{[(2S)-1-(2-methyl-1,3-oxazole-4-carbonyl)pyrrolidin-2-yl]formamido}decanamide] ({Oxazole4CO(2-Me)}-P[dGly(nOct)]L[Aib]LL[Aib][Aib][βAla]-{NH(1-CH2NMe2-cBu)}), the negative logarithm of the IC50 (pIC50) was 8.47 in series [1] (setting [5]) and 7.19 in series [2]. Moreover, half-maximal inhibition in series [3] (rat) (IC50 at 68 h) was put at 4280 nM. Further, the “MIC” value in series [4] was determined as 16 µg/mL (≈ 13.7 µM).
Consider `CCCCCC[C@H](NC(=O)[C@@H]1CCCN1C(=O)c1coc(C)n1)C(=O)N[C@@H](CC(C)C)C(=O)NC(C)(C)C(=O)N[C@@H](CC(C)C)C(=O)N[C@@H](CC(C)C)C(=O)NC(C)(C)C(=O)NC(C)(C)C(=O)NCCC(=O)NC1(CN(C)C)CCC1` [Compound 6894, (2S)—N-[(1S)-1-[(1-{[(1S)-1-{[(1S)-1-({1-[(1-{[2-({1-[(dimethylamino)methyl]cyclobutyl}carbamoyl)ethyl]carbamoyl}-1-methylethyl)carbamoyl]-1-methylethyl}carbamoyl)-3-methylbutyl]carbamoyl}-3-methylbutyl]carbamoyl}-1-methylethyl)carbamoyl]-3-methylbutyl]-2-{[(2S)-1-(2-methyl-1,3-oxazole-4-carbonyl)pyrrolidin-2-yl]formamido}octanamide] ({Oxazole4CO(2-Me)}-P[Aoc(2)]L[Aib]LL[Aib][Aib][βAla]-{NH(1-CH2NMe2-cBu)}), for which the pIC50 in series [1] (setting [5]) is 7.69; in series [2] it was 6.42. In addition, the IC50 at 68 h in series [3] (rat) came out at 4740 nM.
`COc1ccc(C[C@H](NC(=O)[C@@H]2CCCN2C(=O)c2coc(C)n2)C(=O)N[C@@H](CC(C)C)C(=O)NC(C)(C)C(=O)N[C@@H](CC(C)C)C(=O)N[C@@H](CC(C)C)C(=O)NC(C)(C)C(=O)NC(C)(C)C(=O)NCCC(=O)NC2(CN(C)C)CCC2)cc1` [Compound 6896, (2S)-N-(1-{[(1S)-1-{[(1S)-1-({1-[(1-{[2-({1-[(dimethylamino)methyl]cyclobutyl}carbamoyl)ethyl]carbamoyl}-1-methylethyl)carbamoyl]-1-methylethyl}carbamoyl)-3-methylbutyl]carbamoyl}-3-methylbutyl]carbamoyl}-1-methylethyl)-2-[(2S)-3-(4-methoxyphenyl)-2-{[(2S)-1-(2-methyl-1,3-oxazole-4-carbonyl)pyrrolidin-2-yl]formamido}propanamido]-4-methylpentanamide] ({Oxazole4CO(2-Me)}-PY(Me)L[Aib]LL[Aib][Aib][βAla]-{NH(1-CH2NMe2-cBu)}): the pIC50 in series [1] is 6.63; in series [2], 5.79. Further, the IC50 at 68 h in series [3] (rat myoblast L6 cells, read-out: Cytotox L6 IC50) turned out to be 8490 nM.
As to `Cc1nc(C(=O)N2CCC[C@@H]2C(=O)N[C@H](CCC2CCCCC2)C(=O)N[C@H](CC(C)C)C(=O)NC(C)(C)C(=O)N[C@H](CC(C)C)C(=O)N[C@H](CC(C)C)C(=O)NC(C)(C)C(=O)NC(C)(C)C(=O)NCCC(=O)NC2(CN(C)C)CCC2)co1` [Compound 7050, (2R)-2-[(2R)-4-cyclohexyl-2-{[(2R)-1-(2-methyl-1,3-oxazole-4-carbonyl)pyrrolidin-2-yl]formamido}butanamido]-N-(1-{[(1R)-1-{[(1R)-1-({1-[(1-{[2-({1-[(dimethylamino)methyl]cyclobutyl}carbamoyl)ethyl]carbamoyl}-1-methylethyl)carbamoyl]-1-methylethyl}carbamoyl)-3-methylbutyl]carbamoyl}-3-methylbutyl]carbamoyl}-1-methylethyl)-4-methylpentanamide] ({Oxazole4CO(2-Me)}-[dP][d(hCha)][dL][Aib][dL][dL][Aib][Aib][βAla]-{NH(1-CH2NMe2-cBu)}), the pIC50 is 8.29 in series [1] (setting [5]) and 7.36 in series [2]. In series [3] (rat), this compound gave an IC50 at 68 h of 4970 nM.
